Assay results: paper PMC7395068, “The evolution of strategies to minimise the risk of human drug-induced liver injury (DILI) in drug discovery and development” (Archives of Toxicology, 2020)
Like-named read-outs stand apart in the source and are kept apart here.

Legend:
[1] = system: THLE-Null and THLE-3A4 cells; conditions: In vitro Assay; ref Gustafsson 2014; cited from earlier work
[2] = cited from earlier work
[3] = plasma free fraction; cited from earlier work
HepaRG spheroids [4] = system: HepaRG spheroids
Description: (§1) 3D spheroid models consisting of either primary human hepatocytes with non-parenchymal cells (hLiMT’s) or HepaRG cells (HepaRG spheroids) were assessed for size (MS), oxidative stress (OS), MMP, mitochondrial mass (MM), GSH and cellular ATP content following drug exposure. Fluorescent images are acquired using the confocal mode of an ArrayScan™ XTI HCI reader (ThermoScientific) following which cellular ATP was measured using 3D CellTiter-Glo (Promega).

hLiMTs [5] = system: hLiMTs
Description: as §1

HepG2 cells [6] = conditions: cited from earlier work
HepaRG spheroids [7] = experiment: Combined HCI (HCS) and cellular ATP 3D assay in HepaRG spheroids; conditions: HepaRG; for AC50 / minimal effective concentration: Homo sapiens
Description: as §1

rBsep = conditions: In vitro Assay; ref Dawson 2012; cited from earlier work
[8] = Plasma free fraction (fu) and unbound Cmax (Cmax,u); type: in vitro ADME, human
Description: The prediction of DILI severity was evaluated further using the 3D combined HCI assays using plasma-free fraction. The majority of fu values were obtained from literature, when unavailable in-house prediction was utilised. Unbound plasma Cmax concentrations (Cmax,u) were derived by multiplying total plasma Cmax with the corresponding free fraction (fu) for each compound.

HepG2 cells [9] = conditions: cited from earlier work; remark: listed apart in the source
[10] = cited from earlier work; remark: listed apart in the source
PHH = conditions: cited from earlier work
hLiMTs [11] = experiment: Combined HCI (HCS) and cellular ATP 3D assay in hLiMTs; conditions: for AC50 / minimal effective concentration: Homo sapiens
Description: as §1

hLiMTs [12] = conditions: cited from earlier work
[13] = cited from earlier work; remark: listed apart in the source
PHH spheroids = conditions: cited from earlier work
human hepatocytes = conditions: cited from earlier work
[14] = In vitro Assay, ref Persson 2013
[15] = In vitro Assay, ref Proctor 2017

CCOC(=O)c1ncn2c1CN(C)C(=O)c1cc(F)ccc1-2 [flumazenil, reference compound]
THLE-Null [1]: -VE
Assigned DILI category ([2]; Chen et al. 2016 or literature alignment, ref Chen et al. 2016): 1
In vivo DILI ([2]; ref Dawson 2012): -VE
In vivo DILI ([2]; ref Gustafsson 2014): -VE
In vivo DILI ([2]; ref O'Brien 2006): -VE
In vivo DILI ([2]; ref Persson 2013): -VE
In vivo DILI ([2]; ref Proctor 2017): -VE
In vivo DILI ([2]; ref Vorrink 2018): -VE
In vivo DILI ([2]; ref Williams 2019): -VE
In vivo DILI ([2]; ref Xu 2008): -VE
fu [3]: 0.580
DILI prediction HepaRG spheroids (HCS-MEC) (HepaRG spheroids [4]): -VE
DILI prediction hLiMTs (HCS-MEC) (hLiMTs [5]): -VE
Cluser analysis (HepG2 cells [6]; [14]): -VE
Structural based (HCI) (HepG2 cells [6]; [14]): -VE
DILI in vitro assay prediction, Persson (2013) (HepG2 cells [6]; Structural based (HCI), HepG2, ref Persson et al. 2013): -VE
HepaRG <25x Avg Cmax ATP (HepaRG spheroids [7]; ATP endpoint, cut-off <25x Avg Cmax): -ve
HepaRG <25x Avg Cmax HCS (HepaRG spheroids [7]; HCS endpoints, cut-off <25x Avg Cmax): -ve
HepaRG <25x Avg Cmax All (HepaRG spheroids [7]; all endpoints (ATP and HCS), cut-off <25x Avg Cmax): -ve
HepaRG Cmax max All (HepaRG spheroids [7]; all endpoints, Cmax max used): -ve
HepaRG Cmax min All (HepaRG spheroids [7]; all endpoints, Cmax min used): -ve
HepaRG <10 uM All (HepaRG spheroids [7]; all endpoints, cut-off <10 uM): -ve
Inhibition of rBsep cutoff<1& cmax u>.2 (rBsep): -VE
Inhibition of rBsep cutoff<3 (rBsep): -VE
Human plasma Cmax,u ([8]; unbound plasma Cmax): 0.650 µM
Structural based (HCI) (HepG2 cells [9]; In vitro Assay, ref O'Brien 2006): -VE
DILI in vitro assay prediction, O'Brien (2006) (HepG2 cells [9]; Structural based (HCI), HepG2, ref O'Brien et al. 2006): -VE
DILI severity category (Chen et al. [2016]) ([10]; LTKB DILIrank category, ref Chen et al. 2016): No
DILI severity category (Chen 2016) ([10]; human DILI classification, LTKB DILIrank, ref Chen et al. 2016): No
DILI severity category ([10]; human DILI severity, ref Chen et al.): No
DILI +VE (5-8), DILI -VE (-4) ([10]; ref Chen 2016): -VE
DILI severity category ([10]; ref Chen 2016): vNo-DILI-Concern
PHH/100uM, Proctor (2017) (PHH; 2D PHH, ATP, IC50 threshold 100 µM, ref Proctor et al. 2017): -VE
PHH ATP <100uM (PHH; [15]): -VE
hLiMTs <25x Avg Cmax ATP (hLiMTs [11]; hLiMTs, ATP endpoint, cut-off <25x Avg Cmax): -ve
hLiMTs <25x Avg Cmax HCS (hLiMTs [11]; hLiMTs, HCS endpoints, cut-off <25x Avg Cmax): -ve
hLiMTs <25x Avg Cmax All (hLiMTs [11]; hLiMTs, all endpoints (ATP and HCS), cut-off <25x Avg Cmax): -ve
hLiMTs Cmax max All (hLiMTs [11]; hLiMTs, all endpoints, Cmax max used): -ve
hLiMTs Cmax min All (hLiMTs [11]; hLiMTs, all endpoints, Cmax min used): -ve
hLiMTs <10 uM All (hLiMTs [11]; hLiMTs, all endpoints, cut-off <10 uM): -ve
hLiMTs ATP <100uM (hLiMTs [12]; [15]): -VE
hLiMTs/100uM, Proctor (2017) (hLiMTs [12]; hLiMTs, ATP, IC50 threshold 100 µM, ref Proctor et al. 2017): -VE
Cmax ([13]; read-out: Human plasma Cmax, total plasma Cmax.tot, median of 9 literature references): 1.12 µM
hLiMTs ATP <20 x Cmax (PHH spheroids; In vitro Assay, ref Vorrink 2018): -VE
DILI in vitro assay prediction, Vorrink (2018) (PHH spheroids; PHH spheroids, ATP, 14 days, IC20 < 20 × Cmax.tot, ref Vorrink et al. 2018): -VE
Structural based (HCI) (human hepatocytes; In vitro Assay, ref Xu 2008): -VE
DILI in vitro assay prediction, Xu (2008) (human hepatocytes; Structural based (HCI), human hepatocytes, ref Xu et al. 2008): -VE

CO[C@@]12[C@H](COC(N)=O)C3=C(C(=O)C(C)=C(N)C3=O)N1C[C@@H]1N[C@@H]12 [mitomycin C]
HepaRG <10 uM All (HepaRG spheroids [4]): +ve (key: +ve: <10 uM)
HepaRG <100x Avg Cmaxu ATP (HepaRG spheroids [4]; human): +ve (key: +ve: <100x Avg Cmaxu)
HepaRG <100x Avg Cmaxu All (HepaRG spheroids [4]; human): +ve (key: +ve: <100x Avg Cmaxu)
HepaRG <100x Avg Cmaxu HCS (HepaRG spheroids [4]; human): +ve (key: +ve: <100x Avg Cmaxu)
HepaRG Cmax max All (HepaRG spheroids [4]; human): +ve
HepaRG Cmax min All (HepaRG spheroids [4]; human): +ve
hLiMTs <10 uM All (hLiMTs [5]): +ve (key: +ve: <10 uM)
hLiMTs <100x Avg Cmaxu ATP (hLiMTs [5]; human): +ve (key: +ve: <100x Avg Cmaxu)
hLiMTs <100x Avg Cmaxu All (hLiMTs [5]; human): +ve (key: +ve: <100x Avg Cmaxu)
hLiMTs <100x Avg Cmaxu HCS (hLiMTs [5]; human): +ve (key: +ve: <100x Avg Cmaxu)
hLiMTs Cmax max All (hLiMTs [5]; human): +ve
hLiMTs Cmax min All (hLiMTs [5]; human): +ve
AC50 (HepaRG spheroids [7]; read-out: ATP endpoint AC50): 400 nM
minimal effective concentration (HepaRG spheroids [7]; read-out: ATP endpoint MEC): 0.4 µM
AC50 (HepaRG spheroids [7]; read-out: HCS endpoint AC50): 400 nM
minimal effective concentration (HepaRG spheroids [7]; read-out: HCS endpoint MEC): 0.4 µM
Human plasma Cmax,u ([8]; human): 5.396 µM
PHH/100uM, Proctor (2017) (PHH): +VE (key: +VE: IC50 threshold of 100 µM)
AC50 (hLiMTs [11]; read-out: ATP endpoint AC50): 929 nM
minimal effective concentration (hLiMTs [11]; read-out: ATP endpoint MEC): 0.454 µM
AC50 (hLiMTs [11]; read-out: HCS endpoint AC50): 1090 nM
minimal effective concentration (hLiMTs [11]; read-out: HCS endpoint MEC): 0.399 µM
hLiMTs/100uM, Proctor (2017) (hLiMTs [12]): +VE (key: +VE: IC50 threshold of 100 µM)
Cmax ([13]; human, in vivo): 7.1 µM
